Measurements reported in patent US6166045A, “Torasemide of modification III” (Roche Diagnostics GmbH, priority 1998, dated 2000).
Where two headings read alike, the source gives them in different places.

Legend:
Diuretic effect = settings: in vivo
Heat of solution = assay type: physicochemical; settings: in I-butanol at 20° C.
Method: Relevant data of the two most important crystal forms (modification I and III) of torasemide are summarized in Table 1. | Heat of solution (kJ mol^-1) in I-butanol at 20° C. 36.1

True density = assay type: physicochemical
Method: One aspect of the present invention involves pure torasemide of modification III. It is believed that pure torasemide of modification III was previously unknown to the art. Torasemide of modification III can be characterized by a melting point of 155 to 158° C. (thermomicroscopy) and a true density of 1.302±0.009 g cm^-3 (versus 1.363±0.001 g cm^3 for modification I). In a preferred embodiment, the torasemide of modification III is pure. This term "pure" means that the torasemide contains less than about 1% of modification I and/or II, and less in any event than amounts of modification I which adversely effect the stability of modification III.
True density (g cm^-3) ± 95% - c.i.

[1] = Water content after storing in relative humidity of 92% at 25° C.; assay type: physicochemical; settings: 92% relative humidity, Mod. III depending on particle size
Method: Relevant data of the two most important crystal forms (modification I and III) of torasemide are summarized in Table 1. | Water content (%) after storing in relative 0.2 1.2 (depending | humidity of 92% at 25° C. on particle size

[2] = Serum concentration of torasemide in rats after oral administration; assay type: in vivo, Wistar rat; settings: male rats (FIG. 1); for Serum concentration compared with modification I: oral 3 mg per kilogram
Method: FIG. 1 is a plot of serum concentration levels in male rats of torasemide of modification I and modification III versus time after oral administration; and FIG. 2 is similar to FIG. 1, but reflects the serum concentrations in female rats. […] Therefore, both genders were tested to determine the concentration of torasemide in serum against the time after administration. The dose of torasemide was 3 mg per kilogram, administered orally. FIG. 1 is a graph illustrating the concentration in the serum of male rats of torasemide, as a result of administering modification I and modification III. FIG. 2 is a representation of the concentration of torasemide versus time after administration for the serum of female rats, treated the same as the male rats of FIG. 1.

[3] = Storage stability of the crystal modification; assay type: physicochemical; settings: storage stable: tablet form, ambient conditions, less than 5% changing into another crystalline form over six months
[4] = Heat of fusion / heat of transition (DSC); assay type: physicochemical; settings: for Heat of fusion ± 95% - C.B.: heating rate 5K min^-1
[5] = literature (Acta Cryst. 1978), cited from earlier work
[6] = prior art (U.S. Re 34,672 and 34,580); listed as modification I; cited from earlier work
[7] = system: sodium-potassium-2 chloride transport mechanism in the ascending limb of the loop of Henle; settings: cited from earlier work
[8] = male versus female Wistar rats; P-450 oxidation products; cited from earlier work
[9] = in vivo; cited from earlier work

Q: For `Cc1cccc(Nc2ccncc2S(=O)(=O)NC(=O)NC(C)C)c1` [Modification III], which Diuretic effect (Diuretic effect) is on record?
A: effective diuretic

Q: And the Heat of solution (Heat of solution; listed as Mod. III)?
A: 29.8 kJ/mol

Q: And the “True density ± 95% - c.i.” value (True density; listed as Mod. III)?
A: 1.302 ± 0.009 g cm^-3

Q: What about the “True density ± 95% - c.i.” value (True density; listed as modification III) of the same compound?
A: 1.302±0.009 g cm^-3

Q: And the “Water content after storing in relative humidity of 92% at 25° C.” value ([1]; listed as Mod. III)?
A: 1.2%

Q: And the “Serum concentration compared with modification I” value ([2]; 20 minutes after administration)?
A: more than twice the serum concentration as modification I

Q: What about the “Serum concentration compared with modification I” value ([2]; 40 minutes after administration) of the same compound?
A: almost twice the serum concentration as modification I

Q: What about the “Appearance in the serum after oral administration” value ([2]; oral) of the same compound?
A: rapid appearance

Q: And the “Stability of the crystal modification” value [3]?
A: storage stable

Q: And the “Heat of transition ± 95% - C.B.” value ([4]; at about 159° C., the difference of the heats of fusion, ± 2.1 printed on next line)?
A: -82 kJ/mol

Q: And the “Heat of fusion ± 95% - C.B.” value ([4]; listed as Mod. III)?
A: 29.9 ± 0.9 kJ/mol

Q: Which True density ([5]; in g/cm3 (unit assumed)) does the source give for `Cc1cccc(Nc2ccncc2S(=O)(=O)NC(=O)NC(C)C)c1` [Modification II] here?
A: 1.285

Q: With `Cc1cccc(Nc2ccncc2S(=O)(=O)NC(=O)NC(C)C)c1` [Modification I] as the compound, how does the Heat of solution (Heat of solution) read?
A: 36.1 kJ/mol

Q: And the “True density ± 95% - c.i.” value (True density; listed as Mod. I)?
A: 1.363 ± 0.001 g cm^-3

Q: What about the “Water content after storing in relative humidity of 92% at 25° C.” value ([1]; listed as Mod. I) of the same compound?
A: 0.2%

Q: And the True density [5]?
A: about 1.36

Q: And the “Stability / rearrangement in tablets or on storage” value [6]?
A: stable in tablets and did not rearrange again back into modification II

Q: And the “Heat of fusion ± 95% - C.B.” value [4]?
A: 37.2 ± 1.9 kJ/mol

Q: For `Cc1cccc(Nc2ccncc2S(=O)(=O)NC(=O)NC(C)C)c1` [Torasemide, 1-isopropyl-3-[(4-m-toluidino-3pyridyl)sulphonyl)urea], which Mechanism of action [7] is on record?
A: blocks the sodium-potassium-2 chloride transport mechanism in the ascending limb of the loop of Henle

Q: What about the “Difference between male and female rats in excretion rate and metabolism” value [8] of the same compound?
A: significant differences

Q: And the “Diuresis profile compared with other standard loop diuretics” value [9]?
A: less intense initial diuresis and a sustained duration of action
